Measured values as given in patent US4450115A, “Amino-alcohol derivatives” (Kyowa Hakko Kogyo Co., Ltd., priority 1979, dated 1984).
Structures can show the parent of a compound that is named as a salt. Where two headings read alike, the source gives them in different places.

Assays:
[1] = in vivo; details: mouse, male dd-strain mice
Text: The test compounds were orally administered to male dd-strain mice weighing 20-25 g.

[2] = tested on: β2-adrenergic receptor; assay: β2 blocking activity (inhibition of Isoproterenol-induced decrease in diastolic blood pressure); assay type: in vivo, mongrel dogs; details: Table 6, dogs, 0.5 μg/kg Isoproterenol i.v.
Method: (§1) In experiments (a), (b), (c) and (d), 3-4 male or female mongrel dogs (weight: 10-20 Kg) as one group were anesthetized by intravenous administration of 30 mg/kg of pentobarbital-Na. All compounds were dissolved in polyethylene glycol 400 and administered to the femoral vein.
(c-3) β2 blocking activity
In this test, 0.5 μg/kg of Isoproterenol is intravenously administered to the dogs to cause a decrease in diastolic blood pressure.

[3] = tested on: β1-adrenergic receptor; assay: β1 blocking activity (inhibition of Isoproterenol-induced increase in heart rate); assay type: in vivo, mongrel dogs; details: Table 6, dogs, 0.5 μg/kg Isoproterenol i.v.
Method: as §1
(c-2) β1 blocking activity
In this test, 0.5 μg/kg of Isoproterenol is intravenously administered to the dogs to cause an increase in the heart rate.

[4] = tested on: α-adrenergic receptor; assay: α blocking activity (inhibition of Norepinephrine-induced increase in systolic blood pressure); assay type: in vivo, mongrel dogs; details: Table 6, dogs, 3 μg/kg Norepinephrine i.v.
Method: as §1
(c-1) α blocking activity
In this test, 3 μg/kg of Norepinephrine is intravenously administered to the dogs to cause an increase in systolic blood pressure.

[5] = tested on: main artery of the dogs' organ; assay: Effect on organ blood flow; assay type: in vivo, mongrel dogs; details: Canis lupus familiaris, iv, Table 5, femoral vein;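 note: percent change relative to blood flow before compound administration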
Method: as §1
(b) Effect on organ blood flow M (%)
In this test, 1 mg/kg of each compound shown in Tables 5 and 7 is administered to the dogs and an electromagnetic probe is attached to the main artery of the dogs' organ to measure the flow of blood.

[6] = read-out: Organ blood flow, Crotch (percentage change)
[7] = read-out: Organ blood flow, Malleus (percentage change)

Structure (SMILES)	LD50 ([1]; Table 6, oral) [mg/kg]	β2 blocking activity, percentage inhibition ([2]; test compound 0.1 mg/kg)	β1 blocking activity, percentage inhibition ([3]; test compound 0.1 mg/kg)	α blocking activity, percentage inhibition ([4]; test compound 0.1 mg/kg)	LD50 ([1]; Table 5, oral) [mg/kg]	change in vivo at 1 mg/kg [5, 6] [%]	change in vivo at 1 mg/kg [5, 7] [%]	further results
COc1ccc(OCC(C)NCC(O)COc2ccc(CC(N)=O)cc2)cc1 (stereo not shown) [Compound 34, 1-(4-carbamoylmethylphenoxy)-3-{1-methyl-2-(4-methoxyphenoxy)ethylamino}-2-propanol]	> 1000	-57%	-55%	-36%				
CCOC(=O)Cc1ccc(OCC(O)CNC(C)CCc2ccccc2)cc1 (stereo not shown) [Compound 14, 1-(4-ethoxycarbonylmethylphenoxy)-3-(1-methyl-3-phenylpropylamino)-2-propanol]	> 1000	+2%	-11%	+13%				
Cc1cccc(OCC(O)CNCC2COc3ccccc3O2)c1 (stereo not shown) [Compound 1, 1-(3-methylphenoxy)-3-(1,4-benzodioxane-2-methaneamino)-2-propanol]					1000 to 2000	35	67	
COC(=O)c1cc(C(O)CNCC2COc3ccccc3O2)ccc1O (stereo not shown) [Compound 10, 1-(3-methoxycarbonyl-4-hydroxy)phenyl-2-(1,4-benzodioxane-2-methaneamino)ethanol]						-50	-16	
COc1ccc(OCC(C)NCC(O)COc2ccccc2C#N)cc1 (stereo not shown) [Compound 31]	125 to 250	-30%	-54%	-20%				
COc1ccc(OCC(C)NCC(O)COc2ccc(NC(C)=O)cc2)cc1 (stereo not shown) [Compound 33, 1-(4-acetamidophenoxy)-3-{1-methyl-2-(4-methoxyphenoxy)ethylamino}-2-propanol]	> 1000	-13%	-52%	-21%				
CC(CCc1ccccc1)NCC(O)c1ccc(CC(N)=O)cc1 (stereo not shown) [Compound 22, 1-(4-carbamoylmethylphenyl)-2-(1-methyl-3-phenylpropylamino) ethanol]	> 1000	-11%	-8%	+19%				
CCOC(=O)Cc1cccc(OCC(O)CNC(C)CCc2ccccc2)c1 (stereo not shown) [Compound 19, 1-(3-ethoxycarbonylmethylphenoxy)-3-(1-methyl-3-phenylpropylamino)-2-propanol]	> 1000	+14%	-7%	+23%				
CC(=O)Nc1ccc(OCC(O)CNCC2COc3ccccc3O2)cc1 (stereo not shown) [Compound 2, 1-(4-acetamidophenoxy)-3-(1,4-benzodioxane-2-methaneamino)-2-propanol]					500 to 1000	20	50	
Cc1cccc(OCC(O)CNCC2COc3ccccc3O2)c1C (stereo not shown) [Compound 6, 1-(2,3-dimethylphenoxy)-3-(1,4-benzodioxane-2-methaneamino)-2-propanol]					> 1000	17	-9	
CCOC(=O)Cc1ccc(OCC(O)CNCC2COc3ccccc3O2)cc1 (stereo not shown) [Compound 5, 1-(4-ethoxycarbonylmethyl)phenoxy-3-(1,4-benzodioxane-2-methaneamino)-2-propanol]					> 1000	-26	-84	
CC(=O)Nc1ccc(OCC(O)CNCc2ccc3c(c2)OCCO3)cc1 (stereo not shown) [Compound 23, 1-(4-acetamidophenoxy)-3-(1,4-benzodioxane-6-methaneamino)-2-propanol]					> 1000	90	67	
CC(CCc1ccccc1)NCC(O)COc1ccccc1C#N (stereo not shown) [Compound 12, 1-(2-cyanophenoxy)-3-(1-methyl-3-phenylpropylamino)-2-propanol]	125 to 250							β2 blocking activity, percentage inhibition ([2]; *dose of compound 1 mg/kg): -100%; β1 blocking activity, percentage inhibition ([3]; *dose of compound 1 mg/kg): -100%; α blocking activity, percentage inhibition ([4]; *dose of compound 1 mg/kg): -52%
Cc1c(C(O)CNCC2COc3ccccc3O2)oc2ccc(F)cc12 (stereo not shown) [Compound 9, 1-(5-fluoro-3-methyl-2-benzofuranyl)-2-(1,4-benzodioxane-2-methaneamino)ethanol]						42	35	
COc1ccc(C(O)C(C)NCC2COc3ccccc3O2)cc1C (stereo not shown) [Compound 8, 1-(3-methyl-4-methoxy)phenyl-2-(1,4-benzodioxane-2-methaneamino)propanol]					450	-67	-4	
CCOC(=O)Cc1ccc(C(O)CNC(C)CCc2ccccc2)cc1 (stereo not shown) [Compound 21, 1-(4-ethoxycarbonylmethylphenyl)-2-(1-methyl-3-phenylpropylamino) ethanol]	> 1000	-8%	-10%	+9%				
CC(CCc1ccccc1)NCC(O)COc1ccc(CC(=O)O)cc1 (stereo not shown) [Compound 17, 1-(4-carboxymethylphenoxy)-3-(1-methyl-3-phenylpropylamino)-2-propanol]	> 1000	-13%	+13%	+15%				
CC(CCc1ccccc1)NCC(O)COc1ccccc1C(N)=O (stereo not shown) [Compound 16, 1-(2-carbamoylphenoxy)-3-(1-methyl-3-phenylpropylamino)-2-propanol]	250 to 500	-19%	-57%	-28%				
OC(CNCC1COc2ccccc2O1)COc1cccc2ccccc12 (stereo not shown) [Compound 7, 1-(1-naphthyloxy)-3-(1,4-benzodioxane-2-methaneamino)-2-propanol]					> 1000	-36	59	
CC(CCc1ccccc1)NCC(O)COc1cccc(CC(N)=O)c1 (stereo not shown) [Compound 20, 1-(3-carbamoylmethylphenoxy)-3-(1-methyl-3-phenylpropylamino)-2-propanol]	> 1000	+9%	-9%	+7%				
NC(=O)Cc1ccc(OCC(O)CNCc2ccc3c(c2)OCCO3)cc1 (stereo not shown) [Compound 25, 1-(4-carbamoylmethylphenoxy)-3-(1,4-benzodioxane-6-methaneamino)-2-propano]					> 1000	90	22	
CC(CCc1ccccc1)NCC(O)COc1ccc(CC(=O)NN)cc1 (stereo not shown) [Compound 18, 1-(4-hydrazinocarbonylmethylphenoxy)-3-(1-methyl-3-phenylpropylamino)-2-propanol]	> 1000	+2%	-3%	+10%				
O=C1CCCc2c(OCC(O)CNCc3ccc4c(c3)OCCO4)cccc21 (stereo not shown) [Compound 24, 1-{3,4-dihydro-1(2H)-naphthalenon-5-yl}oxy-3-(1,4-benzodioxane-6-methaneamino)-2-propanol]					> 1000	106	60	
CC(CCc1ccccc1)NCC(O)c1ccc(O)c(C(N)=O)c1 (stereo not shown) [Reference compound, 5-[1-hydroxy-2-(1-methyl-3-phenylpropyl)aminoethyl] salicylamide hydrochloride, reference compound]		-50%	-69%	-32%				
Cc1cccc(OCC(O)CNC(C)CCc2ccccc2)c1C (stereo not shown) [Compound 13, 1-(2,3-dimethylphenoxy)-3-(1-methyl-3-phenylpropylamino)-2-propanol]	500 to 1000	-34%	-73%	-20%				
CCOC(=O)Cc1ccc(OCC(O)CNC(C)COc2ccc(OC)cc2)cc1 (stereo not shown) [Compound 32, 1-(4-ethoxycarbonylmethylphenoxy)-3-{1-methyl-2-(4-methoxyphenoxy)ethylamino}-2-propanol]	> 1000	-2%	-11%	0%				
COC(=O)c1ccccc1OCC(O)CNC(C)CCc1ccccc1 (stereo not shown) [Compound 15, 1-(2-methoxycarbonylphenoxy)-3-(1-methyl-3-phenylpropylamino)-2-propanol]	500 to 1000	-40%	-30%	-2%				
N#Cc1ccccc1OCC(O)CNCC1COc2ccccc2O1 (stereo not shown) [Compound 3, 1-(2-cyanophenoxy)-3-(1,4-benzodioxane-2-methaneamino)-2-propanol]					420	-21	18	
